Assays:
human IDH1 mutated AML [1] = experiment: Transplantation and treatment of mice (PDX model of IDH1 mutated AML); settings: for leukemic cells in peripheral blood: monotherapy, week 4 until end of treatment at week 12, Compound A1 150 mg/kg p.o. once daily, azacitidine 1 mg/kg s.c. days 1-5
Experimental: Leukemic cells from an AML patient with mutated DH1, NPM1, FLT3-TKD and NRAS were xenografted in immunocompromised mice. One million patient-derived AML cells collected from bone marrow and spleen of leukemic mice were injected intravenously in the tail vein of sublethally (3 Gy) irradiated NSG mice. […] The proportion of leukemic cells in peripheral blood of mice was measured with a human-specific CD45 antibody by tail vein bleeds and FACS analysis. The control groups were treated with either vehicle, Compound A1 150 mg/kg once daily p.o. continuously, or azacitidine 1 mg/kg once daily s.c. days 1-5, repeated once after 28 days. The test groups were treated with Compound A1 and azacitidine in the doses mentioned above either starting both drugs on day 1 (parallel group) or starting azacitidine on day 1 but Compound A1 on day 6 (sequential group).

IDH1 wildtype AML cells = experiment: Clonogenic progenitor (colony formation) assay, IDH1 wildtype AML patient cells; type: cell-based, human; settings: Compound A1 alone
Experimental: (§1) Colony-forming cell (CFC) units were assayed in methylcellulose (Methocult H4100; StemCell Technologies Inc.) supplemented with 10 ng/mL IL3, 10 ng/mL GM-CSF, 50 ng/mL SCF, 50 ng/mL FLT3-ligand and 3 U/mL EPO (PeproTech). […] of Compound A1 was added in combination with increasing concentrations of Azacytidine to methylcellulose containing 10exp5 human mononuclear cells and were plated in duplicate. Colonies were evaluated microscopically 10 to 14 days after plating by standard criteria. Graphs was plotted as proportion of colonies relative to vehicle treated cells.

[2] = test system: human IDH1 mutated AML cells; experiment: Clonogenic progenitor (colony formation) assay, IDH1 mutated AML patient cells; type: cell-based; settings: Compound A1 alone
Experimental: as §1

human IDH1 mutated AML [3] = settings: background statement, oral; cited from earlier work

Row | SMILES | leukemic cells in peripheral blood (human IDH1 mutated AML [1]) | colony formation (IDH1 wildtype AML cells) | leukemia in week 20 (human IDH1 mutated AML [1]; Compound A1 alone, 8 weeks after stopping the treatment) | IC50 [2] [nM] | anti-leukemic activity in PDX models of IDH1 mutant AML in vivo (human IDH1 mutated AML [3])
1 | Nc1ncn([C@@H]2O[C@H](CO)[C@@H](O)[C@H]2O)c(=O)n1 [azacitidine, 5-azacytidine, reference compound] | constantly increased |  |  |  | 
2 | C[C@H]1C[C@@H](n2c(Nc3ccc(OC(F)(F)F)cc3)nc3cc(CCC(=O)O)ccc32)CC(C)(C)C1 [Compound A1, 3-(2-{[4-(trifluoromethoxy)phenyl]amino}-1-[(1R,5R)-3,3,5-trimethylcyclohexyl]-1H-benzimidazol-5-yl)propanoic acid] | declined | not affected | relapsed | 100 | strong anti-leukemic activity

From US20210113598A1, “Combination of MIDH1 Inhibitors and DNA Hypomethylating Agents (HMA)” (Deutsches Krebsforschungszentrum (DKFZ) Stiftung des …, priority 2017, published 2021)
